Source: publication PMC5812297, “Specificity and Application of the Lantibiotic Protease NisP” (Frontiers in Microbiology, 2018)
Entries after “also recorded” stand apart in the source; their conditions may differ. Ends that are not written are not given here.

Key:
[1] = test system: NisP; experiment: Cleavage of nisin mutants by NisP in crude supernatants or purified peptide, masses by MALDI-TOF; type: biochemical, Lactococcus lactis; conditions: His-tagged purified NisP, overnight 37°C; for Aberrant cleavage / misprocessing by NisP: culture pH (4.5–5.0) or pH 6.0, MALDI-TOF
Experimental: Alternatively, supernatants containing nisin mutant peptides produced after induction were divided into two fractions; one in which the pH was adjusted to 6.0 and the other one where the pH was the actual fermentation pH. They were incubated overnight at 37°C with or without His-tagged purified NisP at a ratio of 1000:1. After the incubation, the supernatants were precipitated using TCA and resuspended in 1/20 volume 0.05% acetic acid. For the mutants that were produced in lower amounts, larger volumes were induced and the peptides were purified by cationic exchange chromatography as described before and separated by reverse phase chromatography using a Jupiter 4 μm Proteo 90 Å 250 × 4.6 mm C12 analytical column (Phenomenex). The column was equilibrated in 20% organic solvent (acetonitrile 0.1% TFA) before the sample injection. It was washed for 5 min before applying a linear gradient from 20 to 50% organic solvent in 20 min. 1 μl of each collected peak was used for mass-spectrometry determination.
Mass spectrometry analysis of the samples was performed by matrix-assisted laser desorption/ionization (MALDI) time-of-flight (ToF) in an ABI Voyager DE Pro (Applied Biosystems) operating in linear mode as previously described using external calibration (van Heel et al., [2013]). Briefly, 1 μl sample was spotted, dried and washed with 5 μL Milli-Q water, on the target. Next, 1 μl of α-cyano-4-hydroxycinnamic acid 5 mg/ml (Sigma-Aldrich) was spotted on the sample.
We designed a set of nisin mutants to investigate the specificity of NisP (Figure 4). For all these mutants, supernatants were collected after induction and divided into three fractions. NisP was added to two of these fractions, one maintaining the pH of the culture (4.5–5.0) and the other fraction was adjusted to pH 6.0. The third fraction was used as an untreated control. After cleavage, the masses of the peptides were monitored by MALDI-TOF (Table 2).

[2] = test system: L. lactis NZ9000 (pNZnisP-8H); experiment: Antimicrobial activity of purified prelantibiotics against NisP producing sensor strain; type: cell-based, Lactococcus lactis; conditions: compared to the plasmid free strain, data not shown
Experimental: (§1) Activity tests were performed by well-diffusion assay as indicated by van Heel et al. ([2013]). L. lactis NZ9000 transformed with the appropriate plasmids or Micrococcus flavus were used as sensor strains as specified in each figure. The cleavage of nisin by NisP after SDS-PAGE was monitored washing the gel according to Bhunia et al. ([1987]) and covering with an overlay of GM17 soft agar inoculated with NZ9000 (pIL3BTC pNZnisA-E3) induced with 1 ng/ml nisin. The overlay was incubated for 16 h, after which the presence of inhibition zones was evaluated.
The substrate tolerance of soluble NisP was tested using a set of different lantibiotics. These were produced using the nisin modification machinery encoded in NZ9000 (pIL3BTC pNZE3-mutant) and purified by cationic exchange chromatography. For this purpose, NZ9000 (pNZ-nisP-8H) was used as a sensor strain and tested using gallidermin (van Heel et al., [2013]) and two lantibiotics detected in the genome of Streptococcus pneumoniae, PneA1 and PneA2 encoded in the genes spr1765 and spr1766, respectively, which were heterologously expressed in L. lactis fused to the nisin leader peptide (Majchrzykiewicz et al., [2010]) (Figure 5). […] The activity was restored when a strain producing soluble NisP was employed.
Figure 5 Antimicrobial activity of purified modified lantibiotics gallidermin, 1215 and 1268 against L. lactis NZ9000 (pNZnisP-8H). […]

[3] = test system: L. lactis NZ9000 (pIL253 pNZ8048); experiment: Activity of the proteases in crude supernatants, antimicrobial assay against L. lactis; type: cell-based, Lactococcus lactis; conditions: 1 μl protease with 50 μl supernatant containing its corresponding prenisin variant
Experimental: as §1
To further compare the versatility of NisP in culture conditions with various proteases frequently used in biotechnology, we mutated the last four amino acids in the leader peptide (P4-P1) of nisin (i.e., ASPR) to insert a factor Xa (IEGR) or a thrombin (AVPR) cleavage site. We also mutated the arginine in position P1 of the leader peptide into glutamic acid, creating a cleavage site for the endoprotease Glu-C. Additionally, the proposed self-cleavage sequence of NisP (VSLR) (Figure 1, van der Meer et al., [1993]) was used to replace the ASPR sequence at the end of the nisin leader peptide. […] The cleavage was evaluated by activity against NZ9000 (pIL253 pNZ8048), which is resistant to the erythromycin and chloramphenicol present in the supernatants of the substrate producer strains but sensitive to nisin. […]

[4] = test system: Micrococcus flavus; experiment: Activation of prenisin with supernatants containing NisP variants, antimicrobial assay; type: cell-based; conditions: supernatants after 3 h induction; in the first test 5 μl with 50 μl prenisin
Experimental: as §1
The supernatants of the strains NZ9000 (pNZnisPsl-8H) and NZ9000 (pNZnisPsl-8K) were tested for the presence of protease activity after 3 h of induction with nisin. In each case, 5 μl of the supernatant was mixed with 50 μl of prenisin obtained by TCA precipitation of induced NZ9000 (pIL3BTC pNZnisA-E3). […]
In a second approach, we attempted to reduce the size of NisP, while keeping the active subtilisin-like domain intact. […] Additionally, the size of the inhibition halo measured is larger in the samples activated with the soluble protease present in the supernatants of these three engineered strains compared to the samples activated with the supernatant of L. lactis NZ9000 (pNGnisTP), which produces as a major product wild-type cell-anchored NisP.

## nisin I1D: Nisin I1D mutant (MSTKDFNLDLVSVSKKDSGASPRDTSISLCTPGCKTGALMGCNMKTATCHCSIHVSK; ends and bridges not checked; cysteine pairing not given here; UniProt P13068 1-57, looked up, variant I1D)
[1]; ratio 1000:1, culture pH (4.5–5.0) or pH 6.0, MALDI-TOF
  Cleavage by NisP: a small fraction of uncleaved peptide after the incubation of the mutant nisin I1D with the protease, which indicates reduced cleavage efficiency

## nisin I1K: Nisin I1K mutant (MSTKDFNLDLVSVSKKDSGASPRKTSISLCTPGCKTGALMGCNMKTATCHCSIHVSK; ends and bridges not checked; cysteine pairing not given here; UniProt P13068 1-57, looked up, variant I1K)
[1]
  Aberrant cleavage / misprocessing by NisP: a small fraction of mature nisin with a mass difference consistent with the presence of Arg P1 in the mature peptide
[1]; listed as I1K
  Aberrant cleavage / misprocessing by NisP: a small additional peak detected by mass-spectrometry consistent with a cleavage between positions P2 and P1

## nisin-C7A: Nisin C7A mutant, lacking the first ring (MSTKDFNLDLVSVSKKDSGASPRITSISLATPGCKTGALMGCNMKTATCHCSIHVSK; not fully specified; cysteine pairing not given here; UniProt P13068 1-57, looked up, variant C7A)
[1]
  Aberrant cleavage / misprocessing by NisP: small peaks corresponding to peptides cleaved at abnormal P1 or P2 positions in the leader peptide; also recorded: a small fraction of nisin lacking the first amino acid(s)

## nisin-ringA-less: Nisin (T2V S3A S5A C7A) mutant (MSTKDFNLDLVSVSKKDSGASPRIVAIALATPGCKTGALMGCNMKTATCHCSIHVSK; not fully specified; cysteine pairing not given here; UniProt P13068 1-57, looked up, variant T2V S3A S5A C7A)
[1]
  Aberrant cleavage / misprocessing by NisP: small peaks corresponding to peptides cleaved at abnormal P1 or P2 positions in the leader peptide; also recorded: a small fraction of nisin lacking the first amino acid(s)

## nisin: mature model lantibiotic (ITSISLCTPGCKTGALMGCNMKTATCHCSIHVSK; Lantibiotic nisin-A; UniProt P13068 24-57, looked up)
[2]
  Sensitivity of the NisP producing strain to nisin: increased sensitivity

## thrombin
[3]
  Activity of the protease in culture conditions (release of active nisin): active; also recorded: able to cleave in culture conditions

## trypsin
[3]
  Activity of the protease in culture conditions (release of active nisin): able to cleave in culture conditions
[4]
  Protease activity (antimicrobial activity after activation of prenisin): antimicrobial activity only in the positive controls

B1: NZ9000 (pNGnisTP): strain producing as a major product wild-type cell-anchored NisP (protein, UniProt Q07596 1-682, looked up)
chain: MKKILGFLFIVCSLGLSATVHGETTNSQQLLSNNINTELINHNSNAILSSTEGSTTDSINLGAQSPAVKSTTRTELDVTGAAKTLLQTSAVQKEMKVSLQETQVSSEFSKRDSVTNKEAVPVSKDELLEQSEVVVSTSSIQKNKILDNKKKRANFVTSSPLIKEKPSNSKDASGVIDNSASPLSYRKAKEVVSLRQPLKNQKVEAQPLLISNSSEKKASVYTNSHDFWDYQWDMKYVTNNGESYALYQPSKKISVGIIDSGIMEEHPDLSNSLGNYFKNLVPKGGFDNEEPDETGNPSDIVDKMGHGTEVAGQITANGNILGVAPGITVNIYRVFGENLSKSEWVARAIRRAADDGNKVINISAGQYLMISGSYDDGTNDYQEYLNYKSAINYATAKGSIVVAALGNDSLNIQDNQTMINFLKRFRSIKVPGKVVDAPSVFEDVIAVGGIDGYGNISDFSNIGADAIYAPAGTTANFKKYGQDKFVSQGYYLKDWLFTTANTGWYQYVYGNSFATPKVSGALALVVDKYGIKNPNQLKRFLLMNSPEVNGNRVLNIVDLLNGKNKAFSLDTDKGQDDAINHKSMENLKESRDTMKQEQDKEIQRNTNNNFSIKNDFHNISKEVISVDYNINQKMANNRNSRGAVSVRSQEILPVTGDGEDFLPALGIVCISILGILKRKTKN
modifications: full-length
notes: strain producing as a major product wild-type cell-anchored NisP
[4]
  Protease activity (antimicrobial activity after activation of prenisin): antimicrobial activity only in the positive controls
